Test results published in PMC12596928 (Chembiochem, 2025).
pIC50: −log10 of the molar value. Several values for one entry are separate records, joined by “and”; a condition that tells them apart may be missing. Identical values can stand only once. Counter-ions that a name gives are not always drawn. Like-named read-outs stand apart in the source and are kept apart here.

How the values were obtained:
[1] = biological target: T1, SdeA (Legionella pneumophila subsp. pneumophila, UniProt Q5ZTK4); experiment: biochemical
T1 sequence (Q5ZTK4 231-1190 limits assumed): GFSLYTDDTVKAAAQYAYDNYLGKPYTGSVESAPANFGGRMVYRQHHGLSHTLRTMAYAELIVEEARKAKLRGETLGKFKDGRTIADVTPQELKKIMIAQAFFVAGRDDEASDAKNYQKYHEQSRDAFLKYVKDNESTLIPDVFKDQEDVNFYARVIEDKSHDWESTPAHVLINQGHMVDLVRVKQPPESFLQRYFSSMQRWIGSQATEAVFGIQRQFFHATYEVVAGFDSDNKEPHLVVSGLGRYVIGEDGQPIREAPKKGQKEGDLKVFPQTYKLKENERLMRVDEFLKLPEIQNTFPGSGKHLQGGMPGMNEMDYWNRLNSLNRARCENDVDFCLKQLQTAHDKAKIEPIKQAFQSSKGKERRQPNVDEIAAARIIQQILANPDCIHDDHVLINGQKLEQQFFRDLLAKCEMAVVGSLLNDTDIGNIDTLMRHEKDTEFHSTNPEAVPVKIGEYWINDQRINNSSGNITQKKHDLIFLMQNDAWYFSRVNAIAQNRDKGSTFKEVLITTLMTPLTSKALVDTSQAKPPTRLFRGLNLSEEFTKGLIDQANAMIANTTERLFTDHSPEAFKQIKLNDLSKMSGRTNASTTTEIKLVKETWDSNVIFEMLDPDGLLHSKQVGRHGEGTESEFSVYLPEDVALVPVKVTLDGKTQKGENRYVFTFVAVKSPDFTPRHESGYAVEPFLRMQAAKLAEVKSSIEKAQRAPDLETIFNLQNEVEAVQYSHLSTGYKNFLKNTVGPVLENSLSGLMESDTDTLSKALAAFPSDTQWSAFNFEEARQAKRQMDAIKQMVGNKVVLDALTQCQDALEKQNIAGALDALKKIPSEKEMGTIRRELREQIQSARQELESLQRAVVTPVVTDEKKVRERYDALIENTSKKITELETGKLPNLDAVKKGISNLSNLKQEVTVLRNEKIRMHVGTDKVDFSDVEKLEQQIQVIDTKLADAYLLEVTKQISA

[2] = biological target: T1, SdeA; experiment: biochemical; remark: listed apart in the source
[3] = biological target: T1, SdeA; assay type: biochemical

Structure (SMILES) | inhibition at 5 µM [1] [%] | pIC50 ([2]; read-out: IC50) | also measured
CC(=O)OCC1=C(C(=O)O)N2C(=O)[C@@H](NC(=O)CCC[C@@H](N)C(=O)O)[C@H]2SC1 [Cephalosporin C zinc salt, cephalosporin C Zn^2+ salt] | 74.6 | – | Inhibition [1]: 75%; pIC50 ([2]; IC50): 6.66 and 6.70
O=[N+]([O-])[O-].O=[N+]([O-])[O-].[Pb+2] [Pb(NO3)2] | – | 4.36 | –
O=[N+]([O-])[O-].O=[N+]([O-])[O-].[Cd+2] [Cd(NO3)2] | – | 4.53 | –
O=C(O)C1=CC(=C(c2ccc(O)c(C(=O)O)c2)c2ccc(O)c(C(=O)O)c2)C=CC1=O [Aurintricarboxylic acid] | 96.3 | – | –
[Cl][Ni][Cl] [NiCl2] | – | 4.17 | –
O=c1cc2c(=O)oc3cc(O)c(O)oc3c2c(O)c1O [Galloflavin potassium salt] | 92.4 | – | –
[Cl][Mn][Cl] [MnCl2] | – | – | IC50 (μM) [2]: do not show any inhibitory effect and n.i
NC(=O)c1cccc(N)c1 [3‐AB, 3‐aminobenzamide] | – | – | behaviour as potential positive control [3]: auto‐fluorescent
[Cl][Cu][Cl] [CuCl2] | – | 4.91 | –
[Cl-].[Cl-].[Mg+2] [MgCl2] | – | – | IC50 (μM) [2]: do not show any inhibitory effect and n.i
O=c1cc(-c2ccccc2)oc2c(O)c(O)ccc12 [Dihydroxyflavone] | 96.5 | – | –
[Cl-].[Cl-].[Zn+2] [ZnCl2] | – | 6.34 and 6.52 | fold difference in IC50 between zinc and copper [2]: 40 fold
CCCCCCCC(=O)ON1C(=O)CCC1=O [N‐succinimidyl octanoate] | – | – | inhibition of SdeA [3]: full inhibition
N#CC(C#N)=C(N)/C(C#N)=C/c1cc(O)c(O)c(O)c1 [Tyrphostin A51] | 98.2 | – | –
O=c1c(O)c(-c2ccc(O)c(O)c2)oc2cc(O)cc(O)c12 [Quercetin dihydrate] | 52.2 | – | –
